PubChem BioAssay (NCI)
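At the GI50, growth is halved. TGI: concentration producing complete growth inhibition.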

Assays:
Experiment in all cases: NCI-60 cell line screen, 384-well format
[1] = test system: KM12 colon
[2] = test system: MDA-MB-468 breast
[3] = test system: OVCAR-4 ovarian
[4] = test system: RXF 393 renal
[5] = test system: CCRF-CEM leukemia
[6] = test system: MOLT-4 leukemia
[7] = test system: K-562 leukemia
[8] = test system: IGROV1 ovarian
[9] = test system: TK-10 renal
[10] = test system: 786-0 renal
[11] = test system: HS 578T breast
[12] = test system: M14 melanoma
[13] = test system: HCT-15 colon
[14] = test system: SNB-75 CNS
[15] = test system: RPMI-8226 leukemia
[16] = test system: SW-620 colon
[17] = test system: SNB-19 CNS
[18] = test system: MDA-MB-435 melanoma
[19] = test system: SK-MEL-28 melanoma
[20] = test system: OVCAR-8 ovarian
[21] = test system: SN12C renal
[22] = test system: SK-OV-3 ovarian
[23] = test system: U251 glioblastoma
[24] = test system: HOP-92 NSCLC
[25] = test system: NCI/ADR-RES ovarian
[26] = test system: HCC-2998 colon
[27] = test system: NCI-H322M lung
[28] = test system: ACHN renal
[29] = test system: NCI-H460 NSCLC
[30] = test system: MALME-3M melanoma
[31] = test system: DU-145 prostate
[32] = test system: A549 NSCLC
[33] = test system: OVCAR-3 ovarian
[34] = test system: MDA-MB-231 breast
[35] = test system: LOX IMVI melanoma
[36] = test system: HL-60(TB) leukemia
[37] = test system: PC-3 prostate
[38] = test system: MCF7 breast
[39] = test system: BT-549 breast
[40] = test system: COLO 205 colon
[41] = test system: SF-268 CNS
[42] = test system: UACC-62 melanoma
[43] = test system: SR leukemia
[44] = test system: HCT-116 colon
[45] = test system: EKVX NSCLC
[46] = test system: SK-MEL-5 melanoma
[47] = test system: CAKI-1 renal
[48] = test system: NCI-H23 lung
[49] = test system: SF-539 CNS
[50] = test system: NCI-H522 lung
[51] = test system: SF-295 CNS
[52] = test system: T-47D breast
[53] = test system: HT29 colon
[54] = test system: HOP-62 NSCLC
[55] = test system: UO-31 renal

SMILES: O=C(NCc1ccc(S(=O)(=O)c2cc(F)cc(F)c2)cc1)c1ccc2nccn2c1
- GI50 [1]: < 10 nM
- TGI [1]: < 10 nM
- GI50 [2]: < 10 nM
- TGI [2]: < 10 nM
- GI50 [3]: < 10 nM
- TGI [3]: 11.4 nM
- GI50 [4]: < 10 nM
- TGI [4]: < 10 nM
- GI50 [5]: < 10 nM
- TGI [5]: < 10 nM
- GI50 [6]: < 10 nM
- TGI [6]: < 10 nM
- GI50 [7]: < 10 nM
- TGI [7]: < 10 nM
- GI50 [8]: < 10 nM
- TGI [8]: < 10 nM
- GI50 [9]: < 10 nM
- TGI [9]: < 10 nM
- GI50 [10]: < 10 nM
- TGI [10]: < 10 nM
- GI50 [11]: < 10 nM
- TGI [11]: < 10 nM
- GI50 [12]: < 10 nM
- TGI [12]: < 10 nM
- GI50 [13]: < 10 nM
- TGI [13]: < 10 nM
- GI50 [14]: < 10 nM
- TGI [14]: < 10 nM
- GI50 [15]: < 10 nM
- TGI [15]: < 10 nM
- GI50 [16]: < 10 nM
- TGI [16]: < 10 nM
- GI50 [17]: < 10 nM
- TGI [17]: < 10 nM
- GI50 [18]: < 10 nM
- TGI [18]: < 10 nM
- GI50 [19]: < 10 nM
- TGI [19]: < 10 nM
- GI50 [20]: < 10 nM
- TGI [20]: < 10 nM
- GI50 [21]: < 10 nM
- TGI [21]: < 10 nM
- GI50 [22]: < 10 nM
- TGI [22]: < 10 nM
- GI50 [23]: < 10 nM
- TGI [23]: < 10 nM
- GI50 [24]: 20.4 nM
- TGI [24]: 43.5 nM
- GI50 [25]: < 10 nM
- TGI [25]: < 10 nM
- GI50 [26]: < 10 nM
- TGI [26]: < 10 nM
- GI50 [27]: < 10 nM
- TGI [27]: < 10 nM
- GI50 [28]: < 10 nM
- TGI [28]: < 10 nM
- GI50 [29]: 11.6 nM
- TGI [29]: 26.3 nM
- GI50 [30]: < 10 nM
- TGI [30]: 27.4 nM
- GI50 [31]: < 10 nM
- TGI [31]: < 10 nM
- GI50 [32]: < 10 nM
- TGI [32]: 20.3 nM
- GI50 [33]: < 10 nM
- TGI [33]: < 10 nM
- GI50 [34]: < 10 nM
- TGI [34]: 18.3 nM
- GI50 [35]: < 10 nM
- TGI [35]: 25.7 nM
- GI50 [36]: < 10 nM
- TGI [36]: < 10 nM
- GI50 [37]: < 10 nM
- TGI [37]: < 10 nM
- GI50 [38]: < 10 nM
- TGI [38]: < 10 nM
- GI50 [39]: < 10 nM
- TGI [39]: < 10 nM
- GI50 [40]: < 10 nM
- TGI [40]: < 10 nM
- GI50 [41]: < 10 nM
- TGI [41]: < 10 nM
- GI50 [42]: < 10 nM
- TGI [42]: < 10 nM
- GI50 [43]: < 10 nM
- TGI [43]: < 10 nM
- GI50 [44]: < 10 nM
- TGI [44]: < 10 nM
- GI50 [45]: < 10 nM
- TGI [45]: 12.4 nM
- GI50 [46]: < 10 nM
- TGI [46]: < 10 nM
- GI50 [47]: < 10 nM
- TGI [47]: < 10 nM
- GI50 [48]: < 10 nM
- TGI [48]: < 10 nM
- GI50 [49]: < 10 nM
- TGI [49]: < 10 nM
- GI50 [50]: < 10 nM
- TGI [50]: < 10 nM
- GI50 [51]: < 10 nM
- TGI [51]: < 10 nM
- GI50 [52]: < 10 nM
- TGI [52]: < 10 nM
- GI50 [53]: < 10 nM
- TGI [53]: 10.2 nM
- GI50 [54]: < 10 nM
- TGI [54]: < 10 nM
- GI50 [55]: < 10 nM
- TGI [55]: < 10 nM
